The values below come from ChEMBL document CHEMBL5346872 (Eur J Med Chem, 2023).

Structures are written as SMILES.

For the first assay, the target named is T1, beta-catenin-B-cell lymphoma 9 protein complex (Homo sapiens, UniProt P35222).
T1 sequence (P35222 whole entry): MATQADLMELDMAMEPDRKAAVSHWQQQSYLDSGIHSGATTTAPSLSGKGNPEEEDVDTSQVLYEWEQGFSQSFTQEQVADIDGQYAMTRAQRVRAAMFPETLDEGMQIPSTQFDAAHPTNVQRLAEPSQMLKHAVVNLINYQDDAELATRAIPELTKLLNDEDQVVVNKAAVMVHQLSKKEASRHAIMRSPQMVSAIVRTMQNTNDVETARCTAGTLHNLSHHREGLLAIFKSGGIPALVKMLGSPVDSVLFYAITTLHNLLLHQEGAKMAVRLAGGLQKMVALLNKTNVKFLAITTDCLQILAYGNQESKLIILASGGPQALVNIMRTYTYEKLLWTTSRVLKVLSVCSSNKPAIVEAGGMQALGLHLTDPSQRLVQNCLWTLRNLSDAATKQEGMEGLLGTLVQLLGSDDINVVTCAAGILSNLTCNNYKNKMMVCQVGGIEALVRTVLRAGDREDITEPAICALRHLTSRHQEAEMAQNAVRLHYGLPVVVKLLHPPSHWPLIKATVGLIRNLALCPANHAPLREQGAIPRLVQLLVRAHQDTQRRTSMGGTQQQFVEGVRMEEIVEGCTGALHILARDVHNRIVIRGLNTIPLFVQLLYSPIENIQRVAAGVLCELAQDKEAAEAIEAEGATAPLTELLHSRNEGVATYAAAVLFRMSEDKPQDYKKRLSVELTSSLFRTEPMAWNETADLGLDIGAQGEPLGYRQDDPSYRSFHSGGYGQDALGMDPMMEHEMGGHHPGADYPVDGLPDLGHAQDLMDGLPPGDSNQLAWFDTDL
T1 sequence (O00512 whole entry): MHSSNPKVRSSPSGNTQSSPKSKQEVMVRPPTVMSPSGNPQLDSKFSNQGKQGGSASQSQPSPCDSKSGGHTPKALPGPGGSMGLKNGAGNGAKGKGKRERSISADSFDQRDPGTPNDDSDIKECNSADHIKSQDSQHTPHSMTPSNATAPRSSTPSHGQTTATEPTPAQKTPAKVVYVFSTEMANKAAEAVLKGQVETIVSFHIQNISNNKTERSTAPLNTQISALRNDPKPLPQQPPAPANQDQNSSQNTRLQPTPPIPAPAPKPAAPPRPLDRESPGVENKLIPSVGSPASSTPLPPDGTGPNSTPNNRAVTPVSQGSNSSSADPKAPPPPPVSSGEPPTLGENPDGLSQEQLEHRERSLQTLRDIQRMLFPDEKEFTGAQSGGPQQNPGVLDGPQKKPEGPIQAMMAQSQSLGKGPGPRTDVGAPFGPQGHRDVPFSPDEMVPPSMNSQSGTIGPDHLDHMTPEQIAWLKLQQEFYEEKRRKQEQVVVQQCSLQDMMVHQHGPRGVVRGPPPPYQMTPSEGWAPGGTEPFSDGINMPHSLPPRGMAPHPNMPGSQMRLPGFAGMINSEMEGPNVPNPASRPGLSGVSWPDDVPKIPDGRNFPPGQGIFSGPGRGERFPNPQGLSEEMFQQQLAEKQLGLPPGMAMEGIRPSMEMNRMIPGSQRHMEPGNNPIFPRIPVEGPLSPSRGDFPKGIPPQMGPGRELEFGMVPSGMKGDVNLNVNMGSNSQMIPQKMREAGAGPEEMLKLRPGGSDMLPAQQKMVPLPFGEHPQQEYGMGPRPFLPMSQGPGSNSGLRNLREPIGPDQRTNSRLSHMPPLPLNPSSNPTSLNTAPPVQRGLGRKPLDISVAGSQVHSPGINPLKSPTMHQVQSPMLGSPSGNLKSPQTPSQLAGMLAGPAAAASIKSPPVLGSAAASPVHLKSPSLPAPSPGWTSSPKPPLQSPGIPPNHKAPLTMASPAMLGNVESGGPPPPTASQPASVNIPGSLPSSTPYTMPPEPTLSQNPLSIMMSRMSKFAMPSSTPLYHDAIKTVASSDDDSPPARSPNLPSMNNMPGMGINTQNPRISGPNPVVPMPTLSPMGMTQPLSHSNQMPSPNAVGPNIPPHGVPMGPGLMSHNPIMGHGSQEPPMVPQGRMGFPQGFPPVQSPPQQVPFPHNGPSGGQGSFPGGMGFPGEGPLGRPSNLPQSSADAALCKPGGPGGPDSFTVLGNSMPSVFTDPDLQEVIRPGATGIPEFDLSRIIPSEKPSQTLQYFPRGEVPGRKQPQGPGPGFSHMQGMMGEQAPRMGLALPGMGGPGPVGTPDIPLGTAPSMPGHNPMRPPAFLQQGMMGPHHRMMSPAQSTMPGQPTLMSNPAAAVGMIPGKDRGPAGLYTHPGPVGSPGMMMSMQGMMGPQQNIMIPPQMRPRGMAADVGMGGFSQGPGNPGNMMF
In words: Inhibition of beta-catenin (unknown origin) to BCL9-FAM (unknown origin) protein-protein interaction preincubated for 2 hrs followed by BCL9 addition and measured after 2 hrs by fluorescence polarization assay. It is filed as protein-complex assay.
Details: not given
For orientation: In fluorescence polarisation assays a small probe gives low polarisation when free and higher when bound to something large.
By IC50 is commonly meant the concentration that inhibits the measured activity by half. In turn, `O=c1c(O)c(-c2ccc(O)c(OCCCN3CCCCC3)c2)oc2cc(O)cc(O)c12` displayed an IC50 of 18.6 µM.

Compound `O=c1c(O)c(-c2ccc(O)c(OCCN3CCCC3)c2)oc2cc(O)cc(O)c12` showed an IC50 of 56.8 µM.

`O=c1c(O)c(-c2ccc(O)c(OCCCN3CCCCCC3)c2)oc2cc(O)cc(O)c12` returned an IC50 of 20.1 µM.

As to `O=c1c(O)c(-c2ccc(O)c(OCCN3CCOCC3)c2)oc2cc(O)cc(O)c12`, the IC50 was found to be 30.2 µM.

For the compound `O=c1c(O)c(-c2ccc(O)c(O)c2)oc2cc(OCCCN3CCOCC3)cc(O)c12`, the half-inhibitory concentration (IC50) is 12.3 µM.

On to `O=c1c(O)c(-c2ccc(O)c(OCCN3CCCCCC3)c2)oc2cc(O)cc(O)c12`, for which half-maximal inhibition (IC50) required 37.4 µM.

Consider `O=c1c(O)c(-c2ccc(O)c(O)c2)oc2c(-c3ccccc3)c(O)cc(O)c12`, for which the IC50 came out at 18.7 µM.

Consider `COc1cc(OCCCN2CCN(C)CC2)c2c(=O)c(O)c(-c3ccc(O)c(O)c3)oc2c1`, for which the IC50 came to 9.69 µM.

Consider `O=c1c(O)c(-c2ccc(O)c(OCCN3CCCCC3)c2)oc2cc(O)cc(O)c12`, for which the IC50 stood at 31.1 µM.

Compound `O=c1c(O)c(-c2ccc(O)c(O)c2)oc2c(-c3ccc(O)cc3)c(O)cc(O)c12` returned an IC50 of 4.46 µM.

The next assay relates to CT26. In words: Antiproliferative activity against mouse CT26 cells assessed as reduction in cell viability incubated for 48 hrs by CCK-8 assay. As to conditions: CT26, 48 h. (Formazan colour is commonly taken as a measure of viable cells.)
Turning to `O=c1c(O)c(-c2ccc(O)c(OCCCN3CCCCC3)c2)oc2cc(O)cc(O)c12`, the IC50 turned out to be 7.18 µM.

With `O=c1c(O)c(-c2ccc(O)c(OCCN3CCCC3)c2)oc2cc(O)cc(O)c12`, the IC50 was 8.2 µM.

In the case of `O=c1c(O)c(-c2ccc(O)c(OCCCN3CCCCCC3)c2)oc2cc(O)cc(O)c12`, the IC50 turned out to be 35 µM.

Turning to `O=c1c(O)c(-c2ccc(O)c(OCCN3CCOCC3)c2)oc2cc(O)cc(O)c12`, the half-maximal inhibitory concentration (IC50) was found to be 9.96 µM.

On to `O=c1c(O)c(-c2ccc(O)c(OCCN3CCCCCC3)c2)oc2cc(O)cc(O)c12`, for which the IC50 stood at 7.04 µM.

Regarding `O=c1c(O)c(-c2ccc(O)c(OCCN3CCCCC3)c2)oc2cc(O)cc(O)c12`, the IC50 turned out to be 8.67 µM.

Tested on in a further assay: not listed separately
Put plainly: Inhibition of Wnt/beta-catenin signaling in mouse CT26 cells assessed as reduction in Axin2 expression incubated for 24 hrs by qPCR analysis. As to conditions: CT26, 24 h. In general terms: Quantitative PCR measures a nucleic acid by following its amplification.
Regarding `O=c1c(O)c(-c2ccc(O)c(OCCCN3CCCCC3)c2)oc2cc(O)cc(O)c12`, the IC50 is 29.7 µM.

`O=c1c(O)c(-c2ccc(O)c(OCCN3CCCC3)c2)oc2cc(O)cc(O)c12`: the IC50 was 17.6 µM.

Regarding `O=c1c(O)c(-c2ccc(O)c(OCCCN3CCCCCC3)c2)oc2cc(O)cc(O)c12`, the IC50 was 34.7 µM.

With `O=c1c(O)c(-c2ccc(O)c(OCCN3CCOCC3)c2)oc2cc(O)cc(O)c12`, the IC50 worked out at 38.4 µM.

Regarding `O=c1c(O)c(-c2ccc(O)c(OCCN3CCCCCC3)c2)oc2cc(O)cc(O)c12`, the half-inhibitory concentration (IC50) came out at 13.9 µM.

With `O=c1c(O)c(-c2ccc(O)c(OCCN3CCCCC3)c2)oc2cc(O)cc(O)c12`, the IC50 worked out at 23.1 µM.
